Laboratory results as given in patent US20240041856A1, “LIQUID APIXABAN FORMULATION IN SMALL DOSE VOLUME” (DAFECHEM LIMITED, priority 2020, published 2024).

Experiments:
[1] = Solubility of apixaban in propylene glycol based vehicles; assay type: physicochemical
Procedure: (§1) However, for achieving solutions of apixaban with concentration of more than 0.5 mg/mL in a vehicle comprising at least 35% (w/v) propylene glycol based on the total formulation, heating within the range of 25-90° C. is applied so to achieve full and quick solubilization of apixaban.
Concentrated solutions of apixaban are necessary in order to achieve low dosage volumes. The temperature of the mixture of apixaban and optionally co-solvents can be up to 90° C.

[2] = Stability of apixaban in propylene glycol on heating; assay type: physicochemical; conditions: temperature increase up to 90° C.
Procedure: as §1

- Dissolution of apixaban in the vehicle ([1]; 0.25 mg/mL apixaban, vehicle with at least 35% (w/v) propylene glycol, room temperature): dissolves freely
- Most concentrated apixaban solutions prepared ([1]; dissolving at temperature up to 90° C. in at least 35% (w/v) of propylene glycol): up to 10 mg/mL
- Stability of apixaban in propylene glycol [2]: stable
Structure (SMILES): COc1ccc(-n2nc(C(N)=O)c3c2C(=O)N(c2ccc(N4CCCCC4=O)cc2)CC3)cc1 [Apixaban, 1-(4-methoxyphenyl)-7-oxo-6-[4-(2-oxopiperidin-1-yl)phenyl]-4,5,6,7-tetrahydro-1H-pyrazolo[3,4c]pyridine-3-carboxamide]
